Test results: US10610125B2, “Methods and compositions for cell-proliferation-related disorders” (Agios Pharmaceuticals, Inc., priority 2009, dated 2020)
Read-outs that look alike come from different tables or passages of the source.

Legend:
glioblastoma multiforme [1] = details: cited from earlier work
glioblastoma multiforme [2] = details: cited from earlier work; remark: listed apart in the source
recurrent glioma = recurrent glioma patients; cited from earlier work
ICDH1 R132H = ICDH1 R132H (Homo sapiens (Human), UniProt O75874, R132H); test: IDH1 R132H inhibition assay (NADPH/aKG, resazurin to resorufin fluorescence); assay type: biochemical; details: for IC50 Ratio (40/4): ratio of IC50 at 40 uM to 4 uM NADPH; for IC50: IDH1 R132H
Chain of ICDH1 R132H (O75874 whole entry R132H): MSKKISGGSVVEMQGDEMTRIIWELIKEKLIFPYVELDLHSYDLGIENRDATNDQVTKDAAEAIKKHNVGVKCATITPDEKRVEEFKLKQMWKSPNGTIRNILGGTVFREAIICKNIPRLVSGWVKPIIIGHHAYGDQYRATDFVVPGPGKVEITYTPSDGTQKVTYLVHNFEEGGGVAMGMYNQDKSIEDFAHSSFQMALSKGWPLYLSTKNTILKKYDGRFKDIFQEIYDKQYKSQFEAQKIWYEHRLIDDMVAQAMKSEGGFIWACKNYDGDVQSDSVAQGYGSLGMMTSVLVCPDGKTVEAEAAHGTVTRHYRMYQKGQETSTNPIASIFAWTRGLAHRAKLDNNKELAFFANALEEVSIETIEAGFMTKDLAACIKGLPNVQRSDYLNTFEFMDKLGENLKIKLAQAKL
Description: Assays were conducted in a volume of 76 ul assay buffer (150 mM NaCl, 10 mM MgCl2, 20 mM Tris pH 7.5, 0.03% bovine serum albumin) as follows in a standard 384-well plate: To 25 ul of substrate mix ([…], 2 mM aKG), 1 ul of test compound was added in DMSO. […] The reaction was incubated for 50 minutes at room temperature, then 25 ul of detection mix (30 uM resazurin, […]) was added and the mixture further incubated for 5 minutes at room temperature. The conversion of resazurin to resorufin was detected by fluorescent spectroscopy at Ex544 Em590 c/o 590.
(§1) The selectivity between wild type vs mutant could be >20-fold.

IDH1 wt = IDH1 wt (Homo sapiens (Human), UniProt O75874); test: IDH1 wt assay for inhibitor selectivity (1×Km of NADPH); assay type: biochemical; details: 1x Km NADPH; read-out: IDH1wt IC50 @ 1x Km
Chain of IDH1 wt (O75874 whole entry): as the sequence (O75874 whole entry R132H) above, with H132R counted along it
Source text: as §1

IDH1 R132C [3] = molecular target: T1, IDH1 R132C (Homo sapiens (Human), UniProt O75874, R132C); test: IDH1/2 activity assay, reverse reaction (α-KG, NADPH), stopped-flow, IDH1 R132C; assay type: biochemical; details: Reductive (→ NADP+), read-out: KM,NADPH
T1 sequence (O75874 whole entry R132C): as the sequence (O75874 whole entry R132H) above, with H132C counted along it
Description: (§2) Enzymatic binding constants were determined using curve fitting algorithms to standard kinetic models with the Sigmaplot software package (Systat Software, San Jose, Calif.). For determination of kcat, enzyme was incubated with 5×Km of substrate and cofactor; consumption of NADPH or NADP was determined by a change in the OD340 over time. In both cases an extinction coefficient of 6200 M^−1 cm^−1 was used for NADPH.

IDH1 wild-type = IDH1 wild-type (Homo sapiens (Human), UniProt O75874); test: Oxidative decarboxylation of isocitrate to α-KG by IDH1 wild-type (340 nm); assay type: biochemical; details: added in a titration series
Chain of IDH1 wild-type (O75874 whole entry): as the sequence (O75874 whole entry R132H) above, with H132R counted along it
Description: In these reactions, the substrate was varied while the cofactor was held constant at 500 uM. All reactions were performed in 150 mM NaCl, 20 mM Tris-Cl, pH 7.5, 10% glycerol, and 0.03% (w/v) BSA). Reaction progress was followed by spectroscopy at 340 nM monitoring the change in oxidation state of the cofactor. Sufficient enzyme was added to give a linear change in absorbance for 10 minutes.
A well-known regulatory mechanism for control of metabolic enzymes is feedback inhibition, in which the product of the reaction acts as a negative regulator for the generating enzyme.

IDH1 R132C [4] = molecular target: T1, IDH1 R132C; test: IDH1/2 activity assay, forward reaction (isocitrate, NADP+), stopped-flow, IDH1 R132C; assay type: biochemical; details: Oxidative (→ NADPH)
Description: as §2

[5] = with radiation, vs radiation alone
[6] = without MGMT promoter methylation
[7] = read-out: ICDH IC50 (uM) @ 4 uM (10x Km) NADPH, 4 uM (10x Km) NADPH
[8] = read-out: ICDH IC50 (uM) @ 40 uM NADPH, 40 uM (100x Km) NADPH

Structure (SMILES): Cn1nnc2c(C(N)=O)ncn2c1=O [temozolomide, Temozolomide]
- tolerability (glioblastoma multiforme [1]; in vivo): well tolerated
- likelihood of being alive in 2 years (glioblastoma multiforme [1]; [5]): 26%
- median progression-free survival (glioblastoma multiforme [1]; [5]): 6.9 mo
- overall survival (glioblastoma multiforme [1]; [5]): 14.6 mo
- 2-year survival rate (glioblastoma multiforme [2]; with MGMT promoter methylation): 46%
- median survival (glioblastoma multiforme [2]; with MGMT promoter methylation): 21.7 months
- 2-year survival rate (glioblastoma multiforme [2]; [6]): 13.8%
- median survival (glioblastoma multiforme [2]; [6]): 12.7 months
- 6-month survival (recurrent glioma): 21%

Structure (SMILES): O=C1NC(=S)S/C1=C/c1cccc(OCc2ccc([N+](=O)[O-])cc2)c1
- IC50 Ratio (40/4) (ICDH1 R132H): 1.39
- IC50 (ICDH1 R132H; [7]): 23.8 µM
- IC50 (ICDH1 R132H; [8]): 33.2 µM
- IC50 (IDH1 wt): 69.3 µM

Structure (SMILES): O=C1NC(=S)S/C1=C\c1cccc(OC(=O)c2cccc(F)c2)c1
- IC50 Ratio (40/4) (ICDH1 R132H): 1.15
- IC50 (ICDH1 R132H; [7]): 12.8 µM
- IC50 (ICDH1 R132H; [8]): 14.7 µM
- IC50 (IDH1 wt): 19.2 µM

Structure (SMILES): NC(=O)C1=CN([C@@H]2O[C@H](COP(=O)(O)OP(=O)(O)OC[C@H]3O[C@@H](n4cnc5c(N)ncnc54)[C@H](OP(=O)(O)O)[C@@H]3O)[C@@H](O)[C@H]2O)C=CC1 [NADPH]
- Km (IDH1 R132C [3]): 0.3 µM

Structure (SMILES): O=C(O)CCC(O)C(=O)O (stereo not shown) [reaction product 2-HG, 2-hydroxyglutarate]
- effect on oxidative decarboxylation of isocitrate by wild-type ICDH1 (IDH1 wild-type): inhibit

Structure (SMILES): Cc1cc(C(=O)O)ccc1-c1ccc(/C=C2/NC(=O)N(Cc3ccc(Br)cc3)C2=O)o1
- IC50 Ratio (40/4) (ICDH1 R132H): 1.28
- IC50 (ICDH1 R132H; [7]): 15 µM
- IC50 (ICDH1 R132H; [8]): 19.2 µM
- IC50 (IDH1 wt): 46.8 µM

Structure (SMILES): [Cl-].[Cl-].[Mg+2] [MgCl2]
- Km (IDH1 R132C [4]; read-out: KM,MgCl2): 450 µM

Structure (SMILES): NC(=O)c1ccc[n+]([C@@H]2O[C@H](COP(=O)([O-])OP(=O)(O)OC[C@H]3O[C@@H](n4cnc5c(N)ncnc54)[C@H](OP(=O)(O)O)[C@@H]3O)[C@@H](O)[C@H]2O)c1 [NADP+]
- Km (IDH1 R132C [4]; read-out: KM,NADP+): 21 µM
